Measured values from paper PMC4845010, “Three TaFAR genes function in the biosynthesis of primary alcohols and the response to abiotic stresses in Triticum aestivum” (Scientific Reports, 2016).

Target: T1, TaFAR3 (Triticum aestivum, UniProt A0A142IX60)
T1 construct: gene FAR3; full-length ORF, 497 residues (1,494 bp), untagged expression from pYES2/pYES3 in Saccharomyces cerevisiae; gene on chromosome 4BS
T1 sequence (A0A142IX60 1-497): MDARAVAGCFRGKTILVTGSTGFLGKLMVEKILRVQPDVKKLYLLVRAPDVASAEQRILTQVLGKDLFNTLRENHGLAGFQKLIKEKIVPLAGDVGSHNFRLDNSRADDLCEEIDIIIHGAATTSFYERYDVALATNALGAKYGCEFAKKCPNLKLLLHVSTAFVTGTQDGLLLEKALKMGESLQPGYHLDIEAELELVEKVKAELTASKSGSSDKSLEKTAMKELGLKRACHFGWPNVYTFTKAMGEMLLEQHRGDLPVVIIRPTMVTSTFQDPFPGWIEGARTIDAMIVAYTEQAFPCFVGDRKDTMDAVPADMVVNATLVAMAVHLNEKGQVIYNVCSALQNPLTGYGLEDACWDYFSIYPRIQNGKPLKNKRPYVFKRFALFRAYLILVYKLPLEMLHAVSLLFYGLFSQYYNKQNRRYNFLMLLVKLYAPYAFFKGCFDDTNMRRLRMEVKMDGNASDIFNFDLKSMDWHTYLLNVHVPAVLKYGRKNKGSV
Assay: heterologous expression in yeast, lipid extraction, TLC and GC-MS
Assay type: cell-based
Conditions: yeast mutant INVSur4# (Sur4 F262A/K266L); endogenous acyl-CoA substrates; none in empty-vector control

For `CCCCCCCCCCCCCCCCCCCCCCCCCCCCO` [C28:0-OH], the “heterologous expression in yeast, lipid extraction, TLC and GC-MS” value was “In the case of TaFAR3, the highest production of primary alcohol was C28:0-OH”.
